In ChEMBL document CHEMBL6083268, “Discovery of BAY 2413555, First Selective Positive Allosteric Modulator of the M2 Receptor to Restore Cardiac Autonomic Balance” (J Med Chem, 2024):
Values after ≈ are worked out from the molar mass of the structure shown.

Key:
[1] = Intrinsic clearance in rat hepatocytes measured for 90 mins by LC-MS/MS analysis; format: ADME, cell-based, Hepatocyte; details: read-out: CLH (converted)
[2] = Solubility of the compound in PBS buffer at pH 6.5 measured after 24 hrs by LC-MS/MS analysis; format: physicochemical
[3] = Fraction unbound in rat plasma; format: ADME, cell-free
[4] = Fraction unbound in human plasma; format: ADME, cell-free
[5] = Apparent permeability of the compound across apical to basolateral sides in human Caco-2 cells at 2 uM measured after 2 hrs by LC-MS/MS analysis; format: ADME, cell-based
[6] = Blood clearance in Wistar rat at 0.3 mg/kg, iv administered as bolus dose by LC-MS analysis; format: ADME, organism-based
[7] = Volume of distribution at steady state in Wistar rat at 0.3 mg/kg, iv administered as bolus dose by LC-MS analysis; format: ADME, organism-based; details: in vivo, read-out: Vdss
[8] = Half-life in Wistar rat at 0.3 mg/kg, iv administered as bolus dose by LC-MS analysis; format: ADME, organism-based; details: in vivo
[9] = Oral bioavailability in Wistar rat at 1 mg/kg by LC-MS analysis; format: ADME, organism-based; details: in vivo
[10] = Efflux ratio of apparent permeability across basal to apical membrane over apical to basal membrane in human Caco-2 cells at 2 uM measured after 2 hrs by LC-MS/MS analysis
[11] = molecular target: T1, Muscarinic acetylcholine receptor M2 (Homo sapiens, UniProt P08172); assay: Displacement of [3H]7-[(3R,4R)-3,4-Dihydroxypyrrolidin-1-yl]-6-fluoro-4-oxo-N-[3,3,4,4,4-pentafluorobutan-2-yl]-1-(2,4,6-trifluorophenyl)-1,4-dihydro-1,8-naphthyridine-3-carboxamide from human M2 muscarinic acetylcholine receptor expressed in CHO-S cells in presence of acetylcholine by competitive radioligand binding assay; format: cell-based
T1 sequence (P08172 whole entry): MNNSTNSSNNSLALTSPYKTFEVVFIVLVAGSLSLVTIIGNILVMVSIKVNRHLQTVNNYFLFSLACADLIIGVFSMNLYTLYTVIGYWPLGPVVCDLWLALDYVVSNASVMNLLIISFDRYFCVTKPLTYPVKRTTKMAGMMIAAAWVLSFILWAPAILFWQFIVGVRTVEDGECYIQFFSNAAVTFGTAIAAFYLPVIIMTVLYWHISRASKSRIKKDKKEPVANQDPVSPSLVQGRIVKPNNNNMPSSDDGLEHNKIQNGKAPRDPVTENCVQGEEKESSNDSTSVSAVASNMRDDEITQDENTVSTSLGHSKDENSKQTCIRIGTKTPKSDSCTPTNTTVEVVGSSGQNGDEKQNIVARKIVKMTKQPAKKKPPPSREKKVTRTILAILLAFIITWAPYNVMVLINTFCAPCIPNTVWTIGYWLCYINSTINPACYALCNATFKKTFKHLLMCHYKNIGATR

[12] = molecular target: T1, Muscarinic acetylcholine receptor M2
[13] = Tmax in Wistar rat at 1 mg/kg, po by LC-MS/MS analysis; format: ADME, organism-based; details: in vivo
[14] = Half life in Wistar rat at 1 mg/kg, po by LC-MS/MS analysis; format: ADME, organism-based; details: in vivo

predicted hepatic blood clearance at […] [1] [mL/min/kg]	solubility at 24 h [2] [µg/mL]	Papp A→B at 2 h, 2 µM [5] [×10⁻⁶ cm/s]	clearance [6] [mL/min/kg]	Vd [7] [L/kg]	half-life [8] [h]	Structure (SMILES)	also measured
60	–	–	–	–	–	O=C(NC1(C(F)(F)F)CCCC1)c1cn(-c2c(F)cc(F)cc2F)c2nc(N3C[C@@H](O)[C@H](O)C3)ccc2c1=O	–
31.7	< 0.1	–	–	–	–	CC[C@@H](NC(=O)c1cn(-c2c(Cl)cc(F)cc2Cl)c2nc(N3C[C@@H](O)CC3=O)ccc2c1=O)C(F)(F)F	–
51.7	0.4 (≈ 0.638 µM)	6	–	–	–	CC(C)(C)C(NC(=O)c1cn(-c2c(F)cc(F)cc2F)c2nc(N3C[C@@H](O)[C@H](O)C3)c(F)cc2c1=O)C(F)(F)C(F)(F)F (single isomer, unassigned; diastereomer 2)	–
41.7	1.4 (≈ 2.51 µM)	–	–	–	–	CC(C)(C)[C@H](NC(=O)c1cn(-c2c(F)cc(F)cc2F)c2nc(N3C[C@@H](O)[C@H](O)C3)ccc2c1=O)C(F)(F)F	–
21.7	2.9 (≈ 5.68 µM)	48.2	21.7	1.7	1.2	CC[C@@H](NC(=O)c1cn(-c2c(F)cccc2F)c2nc(N3C[C@@H](O)CC3=O)ccc2c1=O)C(F)(F)F	fraction unbound [3]: 0.009; fraction unbound [4]: 0.023; efflux ratio at 2 h, 2 µM [10]: 0.8; bioavailability [9]: 29%
43.3	–	–	–	–	–	CC[C@@H](NC(=O)c1cn(-c2c(Cl)cccc2Cl)c2nc(N3C[C@@H](O)CC3=O)ccc2c1=O)C(F)(F)F	–
22.7	1.9 (≈ 3.72 µM)	45.6	26.7	0.8	0.8	CC[C@@H](NC(=O)c1cn(-c2ccc(F)cc2F)c2nc(N3C[C@@H](O)CC3=O)ccc2c1=O)C(F)(F)F	fraction unbound [3]: 0.008; efflux ratio at 2 h, 2 µM [10]: 0.9; bioavailability [9]: 29%
56.7	< 0.1	–	–	–	–	CC[C@H](NC(=O)c1cn(-c2c(F)cc(F)cc2F)c2nc(N3CC4CC4(O)C3)ccc2c1=O)C(F)(F)F (mixture of isomers)	–
31.7	1.1 (≈ 2.23 µM)	–	–	–	–	CC[C@@H](NC(=O)c1cn(-c2ccccc2F)c2nc(N3C[C@@H](O)CC3=O)ccc2c1=O)C(F)(F)F	–

Further lines, the compound ahead of its results:

Structure (SMILES)	predicted hepatic blood clearance at […] [1] [mL/min/kg]	solubility at 24 h [2] [µg/mL]	Papp A→B at 2 h, 2 µM [5] [×10⁻⁶ cm/s]	clearance [6] [mL/min/kg]	Vd [7] [L/kg]	half-life [8] [h]	also measured
O=C(NC12CC3CC(CC(C3)C1)C2)c1cn(-c2ccc(F)cc2F)c2nc(N3CCCC3)ccc2c1=O	50	–	–	–	–	–	–
CN(C)c1ccc2c(=O)c(C(=O)NC34CC5CC(CC(C5)C3)C4)cn(-c3ccc(F)cc3F)c2n1	41.7	–	–	–	–	–	–
CCC(NC(=O)c1cn(-c2c(F)cc(F)cc2F)c2nc(N3C[C@@H](O)[C@H](O)C3)ccc2c1=O)C(F)(F)C(F)(F)F (single isomer, unassigned; diastereomer 1)	33.3	62 (≈ 107 µM)	8.3	8.33	1.2	2.1	fraction unbound [3]: 0.013; fraction unbound [4]: 0.018; bioavailability [9]: 22%
O=C(NC12CC3CC(CC(C3)C1)C2)c1cn(-c2ccc(F)cc2F)c2nc(N3CCCC3=O)ccc2c1=O	60	–	–	–	–	–	–
CC[C@H](NC(=O)c1cn(-c2c(F)cccc2F)c2nc(N3C[C@@H](O)CC3=O)ccc2c1=O)C(F)(F)F	25	1.5 (≈ 2.94 µM)	–	–	–	–	–
O=C(NC1(C(F)(F)F)CCC1)c1cn(-c2c(F)cc(F)cc2F)c2nc(N3C[C@@H](O)[C@H](O)C3)ccc2c1=O	58.3	0.9 (≈ 1.66 µM)	–	–	–	–	–
CC[C@H](NC(=O)c1cn(-c2ncc(F)cc2F)c2nc(N3C[C@@H](O)CC3=O)ccc2c1=O)C(F)(F)F	6.67	1.8 (≈ 3.52 µM)	–	–	–	–	–
CC[C@H](NC(=O)c1cn(-c2c(F)cc(F)cc2F)c2nc(N3C[C@@H](O)CC3=O)ccc2c1=O)C(F)(F)F	16.7	0.4 (≈ 0.757 µM)	46.2	20	3.5	3.4	fraction unbound [3]: 0.02; fraction unbound [4]: 0.03; efflux ratio at 2 h, 2 µM [10]: 0.6; bioavailability [9]: 91%
O=C(N[C@@H](C1CC1)C(F)(F)F)c1cn(-c2c(F)cc(F)cc2F)c2nc(N3C[C@@H](O)[C@H](O)C3)ccc2c1=O	18.3	12.5 (≈ 23 µM)	12.9	15	3.7	4.6	fraction unbound [3]: 0.025; fraction unbound [4]: 0.033; efflux ratio at 2 h, 2 µM [10]: 8; bioavailability [9]: 19%
O=C(Nc1c(Cl)cccc1Cl)c1cn(-c2ccc(F)cc2F)c2nc(N3C[C@@H](O)CC3=O)ccc2c1=O	26.7	–	–	–	–	–	–
COc1nc2sc(C(=O)NC3CC3)c(N)c2c(C)c1Cl	–	–	–	–	–	–	Ki [11]: 3 µM; EC50 [12]: 2.4 µM
CCC(NC(=O)c1cn(-c2c(F)cc(F)cc2F)c2nc(N3C[C@@H](O)[C@H](O)C3)c(F)cc2c1=O)C(F)(F)C(F)(F)F (single isomer, unassigned; diastereomer 1)	20	11.2 (≈ 18.7 µM)	11.3	23.3	3	1.8	fraction unbound [3]: 0.006; bioavailability [9]: 48%; Tmax [13]: 6 h; half-life [14]: 4.2 h
CC[C@H](NC(=O)c1cn(-c2c(F)cc(F)cc2F)c2nc(N3C[C@@H](O)[C@H](O)C3)ccc2c1=O)C(F)(F)F	21.7	13 (≈ 24.5 µM)	1.2	25	3.5	1.6	–
CC(NC(=O)c1cn(-c2c(F)cc(F)cc2F)c2nc(N3C[C@@H](O)[C@H](O)C3)ccc2c1=O)C(F)(F)C(F)(F)F (single isomer, unassigned; diastereomer 1)	13.3	54.7 (≈ 96.6 µM)	19.3	11.7	2.5	2.1	bioavailability [9]: 21%
CC[C@@H](NC(=O)c1cn(-c2ccccc2Cl)c2nc(N3C[C@@H](O)CC3=O)ccc2c1=O)C(F)(F)F	43.3	0.3 (≈ 0.59 µM)	–	–	–	–	–
CC[C@@H](NC(=O)c1cn(-c2c(F)cc(F)cc2F)c2nc(N3C[C@@H](O)CC3=O)ccc2c1=O)C(F)(F)F	31.7	2.2 (≈ 4.16 µM)	43.4	56.7	2.3	0.9	efflux ratio at 2 h, 2 µM [10]: 0.6
